Common to all, as to assay: inhibition of tumour cell growth, NCI panel, 48 h
The test system of experiment [1] is A549 NSCLC.
Experiment [2] relates to HT29 colon.
Experiment [3] concerns SN12C renal.
Experiment [4] has as its system U251 CNS.
Experiment [5] concerns SK-MEL-2 melanoma.
The test system of experiment [6] is MDA-MB-435.
The test system of experiment [7] is OVCAR-3 ovarian.
Experiment [8] has as its system CAKI-1 renal.
The subject of experiment [9] is BT-549 breast.
Experiment [10] concerns MALME-3M melanoma.
For experiment [11], the system named is IGROV1 ovarian.

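In this assay, cells in 96-well plates receive the compound at five concentrations for 48 hours. Endpoints are linearly interpolated between the surrounding concentrations. TGI: concentration producing complete growth inhibition.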

Regarding `COc1ccc2c(c1)C(=O)[C@@](Nc1ccc(C=O)cc1)(OC)[C@@](OC)(c1ccc([N+](=O)[O-])cc1)O2`, the TGI in [1], in experiment [2], in experiment [3], in [4], in experiment [5] and in experiment [6] was > 10 µM in each case. Moreover, the TGI in experiment [7], in experiment [8], in [9], in experiment [10] and in [11] was > 10 µM throughout.

On to `Cc1ccc2c(=O)c(C(=O)NNC(=S)NC3CCCCC3)c[nH]c2n1`, for which the TGI in experiment [1] was > 100 µM; in [2], > 100 µM; in experiment [3], > 100 µM; in experiment [4], > 100 µM; in [5], > 100 µM; in [6], 89 µM. Further, the TGI in experiment [7], in experiment [8], in experiment [9], in experiment [10] and in [11] was > 100 µM each time.

Turning to `COc1ccc(/C=C2/SC(c3c(O)ccc4ccccc34)N(NC(=O)CCCCCCCCC(=O)NN3C(=O)/C(=C\c4ccc(OC)c(OC)c4)SC3c3c(O)ccc4ccccc34)C2=O)cc1OC` (centres undefined), the TGI in [1] was > 21.4 µM; in [2] it was > 100 µM; in [3], > 100 µM; in [4], 96.8 µM; in experiment [5] it was > 41.6 µM; in experiment [6], > 100 µM. Moreover, the TGI in [7] is > 58.5 µM; in [8] it was > 100 µM; in experiment [9] it was > 100 µM; in experiment [10], 51.4 µM; in experiment [11], 10.7 µM.

`Nc1nc(Cl)c(C=O)c(NCC2(CO)CCC2)n1`: the TGI is > 100 µM in experiment [1]; > 100 µM in [2]; > 100 µM in experiment [3]; 31.9 µM in [4]; 28.3 µM in experiment [5]; > 100 µM in experiment [6]. The TGI in [7] is 42.9 µM; in experiment [8], 33.9 µM; in experiment [9], > 100 µM; in experiment [10], > 100 µM; in [11], 25.9 µM.

Consider `FC(F)(F)C1(c2ccccc2)SCc2nc3ccccc3n21` (centres undefined), for which the TGI in [1], in [2], in experiment [3], in experiment [4], in experiment [5] and in [6] was > 100 µM throughout. Moreover, the TGI in experiment [7], in experiment [8], in experiment [9], in experiment [10] and in experiment [11] was > 100 µM throughout.

Regarding `O=C1c2cc([N+](=O)[O-])sc2C(=O)c2cc([N+](=O)[O-])sc21`, the TGI in [1] turned out to be 49.6 µM; in [2], 11.5 µM; in experiment [3] it was 7.12 µM; in experiment [4] it was 3.38 µM; in experiment [5], 21.4 µM; in experiment [6] it was 4.73 µM. Moreover, the TGI in [7] is 6.65 µM; in [8], 8.81 µM; in experiment [9], 3.95 µM; in [10], 2.38 µM; in [11], 3.07 µM.

On to `COC(=O)/C=C/c1cnc2c(c1)oc(=O)n2C`, for which the TGI in [1], in [2], in [3], in experiment [4], in experiment [5] and in experiment [6] was > 100 µM each time. The TGI in [7], in [8], in experiment [9], in [10] and in experiment [11] was > 100 µM each time.

On to `CC1(C)/C(=N\Nc2ccc([N+](=O)[O-])cc2[N+](=O)[O-])C2CCC1C2` (centres undefined), for which the TGI in experiment [1], in [2], in experiment [3], in [4], in [5] and in [6] was > 100 µM each time. In addition, the TGI in experiment [7], in experiment [8], in experiment [9], in experiment [10] and in experiment [11] was > 100 µM throughout.

For the compound `COC1C(OC(C)=O)CC(=O)OC(C)C/C=C/C=C\C(O)C(C)CC(CC=O)C1OC1OC(C)C(OC2CC(C)(O)C(OC(=O)CC(C)C)C(C)O2)C(N(C)C)C1O` (centres undefined), the TGI in [1], in [2], in experiment [3], in experiment [4], in experiment [5] and in experiment [6] was > 100 µM throughout. Moreover, the TGI in [7], in experiment [8], in experiment [9], in [10] and in [11] was > 100 µM in each case.

For the compound `COc1ccc(Br)c(C=Nc2cccc3cc(OC)c(OC)cc23)c1`, the TGI in [1] is > 100 µM; in experiment [2], > 71.8 µM; in [3] it was > 46.4 µM; in [4], 12.1 µM; in experiment [5], > 100 µM; in experiment [6], 12.6 µM. Also, the TGI is > 100 µM in [7]; > 100 µM in experiment [8]; > 46 µM in experiment [9]; 99.6 µM in experiment [10]; > 93.9 µM in experiment [11].

As to `Nc1nc(Cc2ccccc2)nc(Cc2ccccc2)c1-c1ccccc1`, the TGI in experiment [1] was > 100 µM; in [2], > 100 µM; in [3], > 100 µM; in experiment [4], 37.1 µM; in [5] it was 29.8 µM; in experiment [6] it was 59.3 µM. In addition, the TGI was 37.2 µM in experiment [7]; 96.1 µM in experiment [8]; 50.9 µM in [9]; 50.2 µM in [10]; > 100 µM in experiment [11].

For `S=C(S)N1CCN(c2ccccc2)CC1`, the TGI in [1], in experiment [2], in experiment [3], in experiment [4], in experiment [5] and in experiment [6] was > 100 µM each time. Moreover, the TGI in experiment [7], in experiment [8], in experiment [9], in experiment [10] and in [11] was > 100 µM each time.

Turning to `O=C1NC(N2CCCCC2)=N/C1=C\c1ccccc1`, the TGI in [1], in [2], in [3], in experiment [4], in [5] and in experiment [6] was > 100 µM in each case. For the same compound, the TGI in experiment [7], in experiment [8], in experiment [9], in experiment [10] and in experiment [11] was > 100 µM in each case.

For the compound `CCCCSC1=N/C(=C\c2ccc(N(C)C)cc2)C(Cl)=N1`, the TGI in [1], in [2], in experiment [3], in experiment [4], in experiment [5] and in experiment [6] was > 100 µM throughout. In addition, the TGI in experiment [7], in experiment [8], in experiment [9], in experiment [10] and in experiment [11] was > 100 µM throughout.

For `CC(C)(C)OC(=O)N1CCC(NC(=O)NC2CCN(C(=O)OC(C)(C)C)CC2)CC1`, the TGI in experiment [1], in experiment [2], in experiment [3], in [4], in [5] and in experiment [6] was > 100 µM in each case. For the same compound, the TGI in experiment [7] is > 100 µM; in [8], > 100 µM; in experiment [9], 12.6 µM; in experiment [10], > 100 µM; in experiment [11] it was > 100 µM.

As to `N#CC1=C(S)N(C2OC(CO)C(O)C(O)C2O)C(c2ccccc2)=CC1c1cccs1` (centres undefined), the TGI in experiment [1] stood at 45.6 µM; in experiment [2], 37.5 µM; in experiment [3], 32.4 µM; in experiment [4] it was 51.4 µM; in experiment [5], 50.2 µM; in experiment [6] it was 44.1 µM. Further, the TGI was determined as 80.2 µM in experiment [7]; 50.4 µM in [8]; 30.4 µM in experiment [9]; 38.7 µM in [10]; 45.7 µM in experiment [11].

`Fc1cc2nc3n(c2cc1F)C(c1c(Cl)cccc1Cl)SC3` (centres undefined): the TGI amounted to 28 µM in experiment [1]; 29.8 µM in experiment [2]; 29.8 µM in [3]; 31.4 µM in experiment [4]; 33.6 µM in [5]; 28.9 µM in experiment [6]. In addition, the TGI in experiment [7] came out at 25.7 µM; in experiment [8], 27.1 µM; in experiment [9] it was 40.3 µM; in experiment [10] it was 33.8 µM; in [11], 34 µM.

Consider `CC1(C)CN=C(Nc2ccc(F)c(Cl)c2)S1`, for which the TGI in [1], in [2], in experiment [3], in experiment [4], in experiment [5] and in experiment [6] was > 100 µM in each case. Further, the TGI in [7], in [8], in [9], in experiment [10] and in experiment [11] was > 100 µM in each case.

As to `C=COC(=O)N1C2CCCC(Cl)(C(C)=O)C1CC2` (centres undefined), the TGI in [1], in [2], in experiment [3], in [4], in experiment [5] and in [6] was > 100 µM throughout. Besides, the TGI in experiment [7], in experiment [8], in experiment [9], in experiment [10] and in [11] was > 100 µM each time.

Turning to `CC1(C)CC[C@]2(C(=O)O)CC[C@]3(C)C(=CC[C@@H]4[C@@]5(C)CC[C@H](OC6OC(CO)C(O)C(O)C6O)C(C)(C)[C@@H]5CC[C@]43C)[C@@H]2C1` (some centres undefined), the TGI stood at 3.08 µM in experiment [1]; 2.98 µM in experiment [2]; 3.07 µM in experiment [3]; 3.05 µM in experiment [4]; 3.15 µM in [5]; 3.39 µM in [6]. Besides, the TGI in [7] turned out to be 3.01 µM; in experiment [8], 5.93 µM; in experiment [9], 2.59 µM; in [10], 3.16 µM; in [11] it was 3.06 µM.

On to `CC(C)C[C@H](NC(=O)CCc1cccc2ccccc12)B(O)O`, for which the TGI in experiment [1] is 49.7 µM; in experiment [2], 6.27 µM; in experiment [3] it was 21 µM; in [4] it was 19.6 µM; in experiment [5], 6.74 µM; in experiment [6], 1.02 µM. Besides, the TGI in experiment [7] worked out at 1.86 µM; in [8] it was 3.94 µM; in experiment [9], 2.15 µM; in experiment [10] it was 5.23 µM; in experiment [11], 23.8 µM.

Turning to `COC(=O)C1SC[C@H]2C(=O)N(c3ccccc3)C(=O)N12` (some centres undefined), the TGI in [1], in [2], in experiment [3], in [4], in [5] and in [6] was > 100 µM in each case. Also, the TGI in [7], in experiment [8], in [9], in experiment [10] and in [11] was > 100 µM in each case.

In the case of `Cc1cc(=O)n2nc(CSc3n[nH]c(=S)s3)sc2n1`, the TGI in experiment [1], in [2], in [3], in experiment [4], in experiment [5] and in [6] was > 100 µM throughout. In addition, the TGI in experiment [7], in experiment [8], in [9], in experiment [10] and in [11] was > 100 µM each time.

For the compound `CS(=O)(=O)CCC(N)P(=O)(O)O` (centres undefined), the TGI in experiment [1], in [2], in [3], in experiment [4], in experiment [5] and in experiment [6] was > 100 µM throughout. The TGI in experiment [7], in experiment [8], in experiment [9], in [10] and in [11] was > 100 µM each time.
